Data published in patent publication US11918568B2, “Fused ring compound having urea structure” (DAIICHI SANKYO COMPANY, LIMITED, priority 2018, dated 2024).

Target: human NAMPT enzyme (Homo sapiens (Human), UniProt P43490)
Experiment: NAMPT enzyme activating effect (in vitro cell-free enzyme assay)
Assay type: biochemical
Details: 2 ng/mL human NAMPT enzyme, 1-h incubation at 25° C., fluorescence of NMN derivative
Description: The NAMPT enzyme assay was conducted in accordance with the method of Formentini et al. […] Hereinafter, the procedures will be briefly described. The NAMPT enzyme reaction was carried out using polypropylene 384 well V shaped black plate (Greiner Bio One International GmbH). […] Then, 22 μL of 88% formic acid was added and the mixture was further incubated for 30 min in the dark. The NAMPT enzyme activity was calculated as the difference between fluorescence intensity (Ex 380 nm/Em 450 nm) from the reaction of a test compound treatment group and fluorescence intensity from control reaction free from the NAMPT enzyme. [NAMPT enzyme activity]=[Fluorescence intensity of the test substance treatment group]−[Mean fluorescence intensity of the control reaction free from the NAMPT enzyme] EC50 value of each compound was calculated from the enzyme activities of the compound at various concentrations by using GraphPad Prism software (GraphPad Software) (Table 1)

human NAMPT enzyme, sequence (P43490 whole entry): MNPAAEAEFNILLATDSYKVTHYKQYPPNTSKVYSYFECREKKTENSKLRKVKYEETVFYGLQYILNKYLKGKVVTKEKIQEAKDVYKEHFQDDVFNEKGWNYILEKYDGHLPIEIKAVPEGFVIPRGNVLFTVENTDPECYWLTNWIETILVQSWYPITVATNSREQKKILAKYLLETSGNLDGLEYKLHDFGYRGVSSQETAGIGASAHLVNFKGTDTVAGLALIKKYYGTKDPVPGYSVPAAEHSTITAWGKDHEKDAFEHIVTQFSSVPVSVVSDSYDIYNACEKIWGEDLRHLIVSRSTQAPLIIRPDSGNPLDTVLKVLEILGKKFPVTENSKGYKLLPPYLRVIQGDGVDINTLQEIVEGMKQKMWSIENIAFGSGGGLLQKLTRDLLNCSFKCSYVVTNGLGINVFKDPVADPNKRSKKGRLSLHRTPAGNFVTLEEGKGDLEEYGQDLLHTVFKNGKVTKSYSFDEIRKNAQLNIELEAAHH

EC50 [nM]	SMILES
80	COc1cccc([C@H]2Oc3cc(NC(=O)NCc4ccncc4)ccc3[C@@H]2C)c1 (relative stereo) [Example 53, N-[(2S*,3S*)-2-(3-Methoxyphenyl)-3-methyl-2,3-dihydro-1-benzofuran-6-yl]-N′-[(pyridin-4-yl)methyl]urea]
150	CC1(c2nc3ccc(NC(=O)NCc4ccncc4)cc3o2)CC1 [Example 3, N-[2-(1-Methylcyclopropyl)-1,3-benzoxazol-6-yl]-N′-[(pyridin-4-yl)methyl]urea]
980	Cn1cc(-c2nc3ccc(NC(=O)NCc4ccncc4)cc3o2)cn1 [Example 4, N-[2-(1-Methyl-1H-pyrazol-4-yl)-1,3-benzoxazol-6-yl]-N′-[(pyridin-4-yl)methyl]urea]
110	O=C(NCc1cnco1)Nc1ccc2nc(-c3ccccc3)oc2c1 [Example 5, N-[(1,3-Oxazol-5-yl)methyl]-N′-(2-phenyl-1,3-benzoxazol-6-yl)urea]
10	O=C(NCc1ccncc1)Nc1cc2oc(-c3ccccc3)nc2cc1F [Example 6, N-(5-Fluoro-2-phenyl-1,3-benzoxazol-6-yl)-N′-[(pyridin-4-yl)methyl]urea]
140	O=C(NCc1cnco1)Nc1ccc2nc(-c3ccccc3)nn2c1 [Example 10, N-[(1,3-Oxazol-5-yl)methyl]-N′-(2-phenyl[1,2,4]triazolo[1,5-a]pyridin-6-yl) urea]
20	CCCCc1ccccc1-c1nc2ccc(NC(=O)NCc3ccncc3)cn2n1 [Example 11, N-[2-(2-Butylphenyl)[1,2,4]triazolo[1,5-a]pyridin-6-yl]-N′-[(pyridin-4-yl)methyl]urea]
230	O=C(NCc1ccncc1)Nc1ccc2nc(-c3cccn3-c3ccccc3)nn2c1 [Example 12, N-[2-(1-Phenyl-1H-pyrrol-2-yl)[1,2,4]triazolo[1,5-a]pyridin-6-yl]-N′-[(pyridin-4-yl)methyl]urea]
180	O=C(NCc1ccncc1)Nc1ccc2nc(-c3ccccc3C(F)(F)F)nn2c1 [Example 14, N-[(Pyridin-4-yl)methyl]-N′-{2-[2-(trifluoromethyl)phenyl][1,2,4]triazolo[1,5-a]pyridin-6-yl}urea]
110	O=C(NCc1ccncc1)Nc1ccc2c(C(=O)N3CCCC3)n(-c3ccccc3)nc2c1 [Example 17, N-[2-Phenyl-3-(pyrrolidine-1-carbonyl)-2H-indazol-6-yl]-N′-[(pyridin-4-yl)methyl]urea]
50	CCN(CC)C(=O)c1c2ccc(NC(=O)NCc3ccncc3)cc2nn1-c1ccccc1 [Example 18, N,N-Diethyl-2-phenyl-6-({[(pyridin-4-yl)methyl]carbamoyl}amino)-2H-indazole-3-carboxamide]
380	CCC(=O)N1CC(c2ccccc2)COc2cc(NC(=O)NCc3ccncc3)ccc21 (stereo not shown) [Example 19, N-(3-Phenyl-5-propanoyl-2,3,4,5-tetrahydro-1,5-benzoxazepin-8-yl)-N′-[(pyridin-4-yl)methyl]urea]
160	CN(C)C(=O)c1c(-c2ccccc2)nn2cc(NC(=O)NCc3ccncc3)cc(F)c12 [Example 20, 4-Fluoro-N,N-dimethyl-2-phenyl-6-({[(pyridin-4-yl)methyl]carbamoyl}amino)pyrazolo[1,5-a]pyridine-3-carboxamide]
110	CN(C)C(=O)c1c(-c2ccccc2)nn2cc(NC(=O)NCc3ccncc3)ccc12 [Example 23, N,N-Dimethyl-2-phenyl-6-({[(pyridin-4-yl)methyl]carbamoyl}amino)pyrazolo[1,5-a]pyridine-3-carboxamide]
50	N#Cc1c(-c2ccccc2)nn2cc(NC(=O)NCc3ccncc3)ccc12 [Example 24, N-(3-Cyano-2-phenylpyrazolo[1,5-a]pyridin-6-yl)-N′-[(pyridin-4-yl)methyl]urea]
70	Cc1c(-c2ccccc2)nn2cc(NC(=O)NCc3ccncc3)ccc12 [Example 25, N-(3-Methyl-2-phenylpyrazolo[1,5-a]pyridin-6-yl)-N′-[(pyridin-4-yl)methyl]urea]
40	O=C(NCc1ccncc1)Nc1ccc2cn(-c3ccccc3)nc2c1 [Example 26, N-(2-Phenyl-2H-indazol-6-yl)-N′-[(pyridin-4-yl)methyl]urea]
130	CS(=O)(=O)c1cccc(-n2cc3ccc(NC(=O)NCc4ccncc4)cc3n2)c1 [Example 27, N-{2-[3-(Methanesulfonyl)phenyl]-2H-indazol-6-yl}-N′-[(pyridin-4-yl)methyl]urea]
1000	Cc1c2ccc(NC(=O)NCc3ccncc3)cc2nn1-c1ccccc1 [Example 28, N-(3-Methyl-2-phenyl-2H-indazol-6-yl)-N′-[(pyridin-4-yl)methyl]urea]
60	COCCOc1ccccc1-n1cc2ccc(NC(=O)NCc3ccncc3)cc2n1 [Example 29, N-{2-[2-(2-Methoxyethoxy)phenyl]-2H-indazol-6-yl}-N′-[(pyridin-4-yl)methyl]urea]

EC50 [nM]	SMILES
10	COc1cccc(-n2cc3ccc(NC(=O)NCc4ccncc4)cc3n2)c1 [Example 30, N-[2-(3-Methoxyphenyl)-2H-indazol-6-yl]-N′-[(pyridin-4-yl)methyl]urea]
430	O=C(NCc1ccncc1)Nc1cnc2cc(-c3ccccc3)nn2c1 [Example 31, N-(2-Phenylpyrazolo[1,5-a]pyrimidin-6-yl)-N′-[(pyridin-4-yl)methyl]urea]
130	COc1cc(-n2nc3cc(NC(=O)NCc4ccncc4)ccc3c2C#N)ccn1 [Example 33, N-[3-Cyano-2-(2-methoxypyridin-4-yl)-2H-indazol-6-yl]-N′-[(pyridin-4-yl)methyl]urea]
180	CC(=O)N1c2ccc(NC(=O)NCc3ccncc3)cc2CC1c1ccccc1 (stereo not shown) [Example 34, N-(1-Acetyl-2-phenyl-2,3-dihydro-1H-indol-5-yl)-N′-[(pyridin-4-yl)methyl]urea]
560	COC(=O)Cn1c(-c2ccccc2)cc2cc(NC(=O)NCc3ccncc3)ccc21 [Example 35, Methyl [2-phenyl-5-({[(pyridin-4-yl)methyl]carbamoyl}amino)-1H-indol-1-yl]acetate]
130	COCCn1c(-c2ccccc2)cc2cc(NC(=O)NCc3ccncc3)ccc21 [Example 36, N-[1-(2-Methoxyethyl)-2-phenyl-1H-indol-5-yl]-N′-[(pyridin-4-yl)methyl]urea]
160	COCCOc1cccc(-c2cc3cc(NC(=O)NCc4ccncc4)ccc3n2C)c1 [Example 37, N-{2-[3-(2-Methoxyethoxy)phenyl]-1-methyl-1H-indol-5-yl}-N′-[(pyridin-4-yl)methyl]urea]
620	Cn1c(-c2cccc(S(C)(=O)=O)c2)cc2cc(NC(=O)NCc3ccncc3)ccc21 [Example 38, N-{2-[3-(Methanesulfonyl)phenyl]-1-methyl-1H-indol-5-yl}-N′-[(pyridin-4-yl)methyl]urea]
530	Cn1c(-c2ccccn2)cc2cc(NC(=O)NCc3ccncc3)ccc21 [Example 39, N-[1-Methyl-2-(pyridin-2-yl)-1H-indol-5-yl]-N′-[(pyridin-4-yl)methyl]urea]
190	O=C(NCc1ccncc1)Nc1ccc2c(c1)cc(-c1ccccc1)n2CC1COCCO1 (stereo not shown) [Example 40, N-{1-[(1,4-Dioxan-2-yl)methyl]-2-phenyl-1H-indol-5-yl}-N′-[(pyridin-4-yl)methyl]urea]
290	CN(C)C(=O)n1c(-c2ccccc2)cc2cc(NC(=O)NCc3ccncc3)ccc21 [Example 41, N,N-Dimethyl-2-phenyl-5-({[(pyridin-4-yl)methyl]carbamoyl}amino)-1H-indole-1-carboxamide]
100	Cn1c(-c2ccccc2)cc2cc(NC(=O)NCc3ccncc3)ccc21 [Example 42, N-(1-Methyl-2-phenyl-1H-indol-5-yl)-N′-[(pyridin-4-yl)methyl]urea]
140	O=C(NCc1cnco1)Nc1ccc2cn(-c3ccccc3)nc2c1 [Example 43, N-[(1,3-Oxazol-5-yl)methyl]-N′-(2-phenyl-2H-indazol-6-yl)urea]
110	O=C(NCc1ccncc1)Nc1ccc2cn(-c3cccc(OC(F)F)c3)nc2c1 [Example 44, N-{2-[3-(Difluoromethoxy)phenyl]-2H-indazol-6-yl}-N′-[(pyridin-4-yl)methyl]urea]
60	COc1cccc(-c2cc3ccc(NC(=O)NCc4ccncc4)cn3n2)c1 [Example 45, N-[2-(3-Methoxyphenyl)pyrazolo[1,5-a]pyridin-6-yl]-N′-[(pyridin-4-yl)methyl]urea]
790	CC(C)Cn1ncc2cc(NC(=O)NCc3ccncc3)ccc21 [Example 46, N-[1-(2-Methylpropyl)-1H-indazol-5-yl]-N′-[(pyridin-4-yl)methyl]urea]
650	COCCN1CC(c2ccccc2)Oc2cc(NC(=O)NCc3ccncc3)ccc21 (stereo not shown) [Example 48, N-[4-(2-Methoxyethyl)-2-phenyl-3,4-dihydro-2H-1,4-benzoxazin-7-yl]-N′-[(pyridin-4-yl)methyl]urea]
130	CCNC(=O)N1CC(c2ccccc2Cl)Oc2cc(NC(=O)NCc3ccncc3)ccc21 (stereo not shown) [Example 49, 2-(2-Chlorophenyl)-N-ethyl-7-({[(pyridin-4-yl)methyl]carbamoyl}amino)-2,3-dihydro-4H-1,4-benzoxazine-4-carboxamide]
120	O=C(NCc1ccncc1)Nc1ccc2c(c1)OC(c1ccccc1)C2 (stereo not shown) [Example 51, N-(2-Phenyl-2,3-dihydro-1-benzofuran-6-yl)-N′-[(pyridin-4-yl)methyl]urea]
270	O=C(NCc1ccncc1)Nc1ccc2c(c1)OCC2c1ccccc1 (stereo not shown) [Example 54, N-(3-Phenyl-2,3-dihydro-1-benzofuran-6-yl)-N′-[(pyridin-4-yl)methyl]urea]
